Drawing on patent US9359367B2, “Tetrahydroquinazolinone derivatives as PARP inhibitors” (Lupin Limited, priority 2012, dated 2016), this text covers IC50 for 20 compounds.

This assay concerns the target T1, PARP1 (Homo sapiens, UniProt P09874).
T1 construct: purchased BPS Bioscience
As to the kind of experiment: PARP1 Biochemical Assay (BPS Bioscience kit, chemiluminescence). As to conditions: histone-coated plate, biotinilated NAD+, 25° C. for 60 min, luminescence, read-out: PARP 1 inhibition IC50. The method, then: The assay was performed using BPS Bioscience kit. The 96-well strip plate was coated with 50 μl of histone mixture and incubated at 4° C. overnight. Next day the wells were blocked by adding 100 μl of blocking buffer. The plate was washed and 25 μl of appropriate concentration of PARP1 (25-75 ng/well) was added in all the Test and Positive control wells. In Negative control wells enzyme was replaced with 25 μl of water. To it 5 μl each of 10×PARP assay buffer and activated DNA was added in all the wells (Test, Positive and Negative control wells). 10× concentration of test compounds were prepared and 5 μl test compounds were added respective wells. Reaction volume was made up to 45 μl by adding water to all the wells. Finally, 5 μl of 10×PARP assay mixture containing biotinilated NAD^+ was added in each well and the plate was incubated at ambient temperature (25° C.) for 60 min. After washing the plate 50 μl of Streptavidin-HRP was added in each well and incubated the plate at RT for 30 min. The plate was washed and the luminescence was read in PHERAStar plate reader after adding 100 μl of chemiluminescent substrate.
PARP inhibition was calculated using the following formula: % PARP inhibition=100−[(RLU test compound treated sample−RLU negative control)/(RLU Positive control−RLU negative control)×100]
IC50 values were calculated by plotting % inhibition against the respective concentrations of test compounds using GraphPad Prism 5.

Molecules are shown by their SMILES.

T1 sequence (P09874 whole entry): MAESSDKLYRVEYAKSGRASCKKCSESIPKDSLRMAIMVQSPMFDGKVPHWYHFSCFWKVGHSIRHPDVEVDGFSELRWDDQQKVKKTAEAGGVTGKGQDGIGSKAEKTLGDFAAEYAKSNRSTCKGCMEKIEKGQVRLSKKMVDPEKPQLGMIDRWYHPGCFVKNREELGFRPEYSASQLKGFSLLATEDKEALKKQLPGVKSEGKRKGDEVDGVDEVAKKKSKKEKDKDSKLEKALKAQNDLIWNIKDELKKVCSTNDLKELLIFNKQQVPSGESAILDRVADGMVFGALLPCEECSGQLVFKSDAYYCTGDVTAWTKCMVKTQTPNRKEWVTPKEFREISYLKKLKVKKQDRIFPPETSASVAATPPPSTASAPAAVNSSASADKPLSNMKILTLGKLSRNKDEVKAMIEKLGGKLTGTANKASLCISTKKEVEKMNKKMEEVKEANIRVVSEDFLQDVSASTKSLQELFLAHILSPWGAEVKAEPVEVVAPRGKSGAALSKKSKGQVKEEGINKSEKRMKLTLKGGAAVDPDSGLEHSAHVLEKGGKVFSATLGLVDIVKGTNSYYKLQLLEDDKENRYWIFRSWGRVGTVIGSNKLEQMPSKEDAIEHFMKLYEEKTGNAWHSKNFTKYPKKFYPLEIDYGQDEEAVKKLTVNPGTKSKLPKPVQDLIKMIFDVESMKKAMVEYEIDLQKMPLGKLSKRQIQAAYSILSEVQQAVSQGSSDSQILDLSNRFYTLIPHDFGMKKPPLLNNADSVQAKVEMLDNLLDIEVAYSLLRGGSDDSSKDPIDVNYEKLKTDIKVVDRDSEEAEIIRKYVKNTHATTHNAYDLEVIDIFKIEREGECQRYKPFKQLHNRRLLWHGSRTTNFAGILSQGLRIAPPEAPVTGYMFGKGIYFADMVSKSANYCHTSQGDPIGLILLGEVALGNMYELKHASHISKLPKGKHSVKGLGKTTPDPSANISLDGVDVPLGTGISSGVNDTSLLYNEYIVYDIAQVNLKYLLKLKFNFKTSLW

`O=c1[nH]c(C2=C[C@H](N3CCN(c4ccc(F)c(Cl)c4)CC3)CC2)nc2c1CC1(CC2)CC1` [Compound 64, (R)-2′-(3-(4-(3-chloro-4-fluorophenyl)piperazin-1-yl)cyclopent-1-en-1-yl)-7′,8′-dihydro-3′H-spiro[cyclopropane-1,6′-quinazolin]-4′(5′H)-one]: the IC50 (in general, the concentration that inhibits the measured activity by half) lay within 501 to 5000 nM.
Next, `Cc1cc(F)ccc1N1CCN([C@H]2C=C(c3nc4c(c(=O)[nH]3)CC3(CC4)CC3)CC2)CC1` [Compound 95, (R)-2′-(3-(4-(4-fluoro-2-methylphenyl)piperazin-1-yl)cyclopent-1-en-1-yl)-7′,8′-dihydro-3′H-spiro[cyclopropane-1,6′-quinazolin]-4′(5′H)-one]: 1 to 500 nM; `CNC(=O)c1cnc(N2CCN([C@H]3C=C(c4nc5c(c(=O)[nH]4)CC4(CC5)CC4)CC3)CC2)s1` [Compound 104, (R)—N-methyl-2-(4-(3-(4′-oxo-4′,5′,7′,8′-tetrahydro-3′H-spiro[cyclopropane-1,6′-quinazolin]-2′-yl)cyclopent-2-en-1-yl)piperazin-1-yl)thiazole-5-carboxamide]: 1 to 500 nM.
Next, `O=c1[nH]c(C2=C[C@H](N3CCN(c4ccc(F)cc4Cl)CC3)CC2)nc2c1CC1(CC2)CC1` [Compound 79, (R)-2′-(3-(4-(2-chloro-4-fluorophenyl)piperazin-1-yl)cyclopent-1-en-1-yl)-7′,8′-dihydro-3′H-spiro[cyclopropane-1,6′-quinazolin]-4′(5′H)-one]: 1 to 500 nM; `Cc1ccc(N2CCN(CCCc3nc4c(c(=O)[nH]3)CC3(CC4)CC3)CC2)cc1` [Compound 32, 2′-(3-(4-(p-tolyl)piperazin-1-yl)propyl)-7′,8′-dihydro-3′H-spiro[cyclopropane-1,6′-quinazolin]-4′(5′H)-one]: 1 to 500 nM; `O=c1[nH]c(CCCN2CCN(c3ccncc3)CC2)nc2c1CC1(CC2)CC1` [Compound 29, 2′-(3-(4-(pyridin-4-yl)piperazin-1-yl)propyl)-7′,8′-dihydro-3′H-spiro[cyclopropane-1,6′-quinazolin]-4′(5′H)-one]: 1 to 500 nM.
Next, `CNC(=O)c1ccc(N2CCN([C@H]3C=C(c4nc5c(c(=O)[nH]4)CC4(CC5)CC4)CC3)CC2)cc1F` [Compound 89, (R)-2-fluoro-N-methyl-4-(4-(3-(4′-oxo-4′,5′,7′,8′-tetrahydro-3′H-spiro[cyclopropane-1,6′-quinazolin]-2′-yl)cyclopent-2-en-1-yl)piperazin-1-yl)benzamide]: 1 to 500 nM.
Take `O=c1[nH]c(C2=C[C@@H](N3CCN(c4ccc(F)cc4)CC3)CC2)nc2c1CC1(CC2)CC1` [Compound 43, (S)-2′-(3-(4-(4-fluorophenyl)piperazin-1-yl)cyclopent-1-en-1-yl)-7′,8′-dihydro-3′H-spiro[cyclopropane-1,6′-quinazolin]-4′(5′H)-one]: the IC50 lay within 5000 to 500000 nM.
With `O=c1[nH]c(C2=C[C@@H](N3CC=C(c4ccc(F)cc4)CC3)CC2)nc2c1CC1(CC2)CC1` [Compound 51, (S)-2′-(3-(4-(4-fluorophenyl)-5,6-dihydropyridin-1(2H)-yl)cyclopent-1-en-1-yl)-7′,8′-dihydro-3′H-spiro[cyclopropane-1,6′-quinazolin]-4′(5′H)-one] the figure was 1 to 500 nM; with `Cc1cccnc1N1CCN([C@H]2C=C(c3nc4c(c(=O)[nH]3)CC3(CC4)CC3)CC2)CC1` [Compound 132, (R)-2′-(3-(4-(3-methylpyridin-2-yl)piperazin-1-yl)cyclopent-1-en-1-yl)-7′,8′-dihydro-3′H-spiro[cyclopropane-1,6′-quinazolin]-4′(5′H)-one], 1 to 500 nM.
Next, `Cc1ccc(N2CCN([C@H]3C=C(c4nc5c(c(=O)[nH]4)CC4(CC5)CC4)CC3)CC2)cc1F` [Compound 84, (R)-2′-(3-(4-(3-fluoro-4-methylphenyl)piperazin-1-yl)cyclopent-1-en-1-yl)-7′,8′-dihydro-3′H-spiro[cyclopropane-1,6′-quinazolin]-4′(5′H)-one]: 1 to 500 nM; `O=c1[nH]c(C2=C[C@H](N3CCN(c4ccc(F)c(F)c4)CC3)CC2)nc2c1CC1(CC2)CC1` [Compound 62, (R)-2′-(3-(4-(3,4-difluorophenyl)piperazin-1-yl)cyclopent-1-en-1-yl)-7′,8′-dihydro-3′H-spiro[cyclopropane-1,6′-quinazolin]-4′(5′H)-one]: 1 to 500 nM.
Regarding `CNC(=O)c1ccc(C2=CCN([C@H]3C=C(c4nc5c(c(=O)[nH]4)CC4(CC5)CC4)CC3)CC2)cc1` [Compound 72, (R)—N-methyl-4-(1-(3-(4′-oxo-4′,5′,7′,8′-tetrahydro-3′H-spiro[cyclopropane-1,6′-quinazolin]-2′-yl)cyclopent-2-en-1-yl)-1,2,3,6-tetrahydropyridin-4-yl)benzamide], the IC50 lay in the range of 1 to 500 nM.
With `O=c1[nH]c([C@H]2CC[C@H](N3CCN(c4ccc(F)cc4)CC3)C2)nc2c1CC1(CC2)CC1` [Compound 149, 2′-((1S,3S)-3-(4-(4-fluorophenyl)piperazin-1-yl)cyclopentyl)-7′,8′-dihydro-3′H-spiro[cyclopropane-1,6′-quinazolin]-4′(5′H)-one] the figure was 1 to 500 nM.
With `O=c1[nH]c(C2=C[C@H](N3CCN(c4ccccc4)CC3)CC2)nc2c1CC1(CC2)CC1` [Compound 117, (R)-2′-(3-(4-phenylpiperazin-1-yl)cyclopent-1-en-1-yl)-7′,8′-dihydro-3′H-spiro[cyclopropane-1,6′-quinazolin]-4′(5′H)-one] the figure was 1 to 500 nM; with `CNC(=O)c1ccc(N2CCN([C@H]3C=C(c4nc5c(c(=O)[nH]4)CC4(CC5)CC4)CC3)CC2)c(Cl)c1` [Compound 134, (R)-3-chloro-N-methyl-4-(4-(3-(4′-oxo-4′,5′,7′,8′-tetrahydro-3′H-spiro[cyclopropane-1,6′-quinazolin]-2′-yl)cyclopent-2-en-1-yl)piperazin-1-yl)benzamide], 1 to 500 nM; with `O=c1[nH]c(C2=C[C@H](N3CCN(c4cccc(F)c4)CC3)CC2)nc2c1CC1(CC2)CC1` [Compound 78, (R)-2′-(3-(4-(3-fluorophenyl)piperazin-1-yl)cyclopent-1-en-1-yl)-7′,8′-dihydro-3′H-spiro[cyclopropane-1,6′-quinazolin]-4′(5′H)-one], 1 to 500 nM.
Next, `CNC(=O)c1ccc(N2CCN([C@H]3C=C(c4nc5c(c(=O)[nH]4)CC4(CC5)CC4)CC3)CC2)cc1Cl` [Compound 94, (R)-2-chloro-N-methyl-4-(4-(3-(4′-oxo-4′,5′,7′,8′-tetrahydro-3′H-spiro[cyclopropane-1,6′-quinazolin]-2′-yl)cyclopent-2-en-1-yl)piperazin-1-yl)benzamide]: 1 to 500 nM; `O=c1[nH]c([C@H]2CC[C@@H](N3CCN(c4cccc(F)c4)CC3)C2)nc2c1CC1(CC2)CC1` [Compound 155, 2′-((1S,3R)-3-(4-(3-fluorophenyl)piperazin-1-yl)cyclopentyl)-7′,8′-dihydro-3′H-spiro[cyclopropane-1,6′-quinazolin]-4′(5′H)-one]: 501 to 5000 nM.
With `Cc1ccc(C)c(N2CCN([C@H]3C=C(c4nc5c(c(=O)[nH]4)CC4(CC5)CC4)CC3)CC2)c1` [Compound 144, (R)-2′-(3-(4-(2,5-dimethylphenyl)piperazin-1-yl)cyclopent-1-en-1-yl)-7′,8′-dihydro-3′H-spiro[cyclopropane-1,6′-quinazolin]-4′(5′H)-one], the IC50 lay within 501 to 5000 nM.
